Each block holds one substance with its values, some of them ahead of it.
Key:
[1] = target: plasma kallikrein (Homo sapiens, UniProt P03952); conditions: WO 89/10374; cited from earlier work
[2] = target: T1, Leukocyte Elastase (Homo sapiens, UniProt P08246); experiment: Protease inhibitory activity assay, leukocyte elastase; type: biochemical; conditions: 1 μM inhibitor; MeO-Suc-Ala-Ala-Pro-Val-pNA 0.6 mM; 25° C.
T1 construct: purified at Novo Nordisk A/S; tissue Novo Nordisk A/S (purified there); host or cells: leukocytes
T1 sequence (P08246 30-267): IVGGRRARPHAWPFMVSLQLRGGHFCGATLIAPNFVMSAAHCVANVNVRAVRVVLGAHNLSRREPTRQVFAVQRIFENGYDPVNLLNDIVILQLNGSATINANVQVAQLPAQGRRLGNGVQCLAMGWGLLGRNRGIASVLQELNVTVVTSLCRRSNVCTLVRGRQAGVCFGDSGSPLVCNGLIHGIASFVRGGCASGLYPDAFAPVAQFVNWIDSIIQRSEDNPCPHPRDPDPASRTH
Protocol: MeO--Suc--Ala--Ala--Pro--Val--pNA
(§1) purified at Novo Nordisk A/S
(§2) Inhibition assays were performed in microtiter wells in a total volume of 300 μl in 10 mM NaCl, 50 mM Tris-HCl (pH 7.4), 0.01% TWEEN80 (Polyoxyethylenesorbitan monoleate). The reactions were incubated at 25° C. for ten minutes after which the appropriate chromogenic substrate was added to the final concentration listed in Table 2 and the final reaction was incubated for thirty minutes at 25° C. Amidolytic activity was measured at 405 nm or by fluorescence Em at 460 nm.

[3] = target: T2, Plasmin (Homo sapiens, UniProt P00747); experiment: Protease inhibitory activity assay, plasmin; type: biochemical; conditions: 1 μM inhibitor; plasmin 10 nM; H-D-Val-Leu-Lys-pNA 0.6 mM; 25° C.
T2 construct: Plasmin (10 nM); purchased Kabi
T2 sequence (P00747 97-580 limits assumed): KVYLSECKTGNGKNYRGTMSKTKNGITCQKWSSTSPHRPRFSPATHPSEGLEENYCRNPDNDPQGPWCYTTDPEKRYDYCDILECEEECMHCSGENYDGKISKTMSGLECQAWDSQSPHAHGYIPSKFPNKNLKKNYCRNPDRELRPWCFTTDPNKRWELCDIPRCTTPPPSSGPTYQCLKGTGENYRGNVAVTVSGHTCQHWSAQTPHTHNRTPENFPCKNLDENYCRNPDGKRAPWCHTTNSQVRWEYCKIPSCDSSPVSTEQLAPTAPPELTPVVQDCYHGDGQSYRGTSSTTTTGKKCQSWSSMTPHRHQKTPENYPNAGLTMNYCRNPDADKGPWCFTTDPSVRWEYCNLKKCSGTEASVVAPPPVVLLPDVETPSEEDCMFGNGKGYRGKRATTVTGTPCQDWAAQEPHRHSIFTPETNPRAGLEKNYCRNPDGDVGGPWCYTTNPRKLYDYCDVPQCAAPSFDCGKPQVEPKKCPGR
T2 sequence (P00747 581-810 limits assumed): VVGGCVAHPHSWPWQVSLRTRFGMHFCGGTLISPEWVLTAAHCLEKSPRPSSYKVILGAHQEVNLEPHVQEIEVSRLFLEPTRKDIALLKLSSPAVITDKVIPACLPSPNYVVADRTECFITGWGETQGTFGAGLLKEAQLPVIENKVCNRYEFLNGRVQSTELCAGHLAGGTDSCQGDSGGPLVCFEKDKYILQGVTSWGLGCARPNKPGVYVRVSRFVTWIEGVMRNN
Protocol: H--D--Val--Leu--Lys--pNA
as §2

[4] = tested on: GL Kallikrein (glandular kallikrein); experiment: Protease inhibitory activity assay, glandular kallikrein; type: biochemical; conditions: 1 μM inhibitor; GL kallikrein 1 U/ml; H-D-Val-Leu-Arg-pNA 0.6 mM; 25° C.
Protocol: H--D--Val--Leu--Arg--pNA
(§3) Abbreviations in Table 2: rec. refers to recombinant, GL kallikrein refer
(§4) to glandular kallikrein, and PL kallikrein refers to plasma kallikrein.
as §2

[5] = target: T3, Urokinase (Homo sapiens, UniProt P00749); experiment: Protease inhibitory activity assay, urokinase; type: biochemical; conditions: 1 μM inhibitor; urokinase 5 nM; <Glu-Gly-Arg-pNA 0.6 mM; 25° C.
T3 construct: purchased Serono, Freigung, Germany
Protocol: as §2

[6] = target: T4, Cathepsin G (Homo sapiens, UniProt P08311); experiment: Protease inhibitory activity assay, cathepsin G; type: biochemical; conditions: 1 μM inhibitor; Suc-Ala-Ala-Pro-Phe-pNA 0.6 mM; 25° C.
T4 construct: purified at Novo Nordisk A/S; tissue Novo Nordisk A/S (purified there); host or cells: leukocytes (by the cited method)
T4 sequence (P08311 21-255): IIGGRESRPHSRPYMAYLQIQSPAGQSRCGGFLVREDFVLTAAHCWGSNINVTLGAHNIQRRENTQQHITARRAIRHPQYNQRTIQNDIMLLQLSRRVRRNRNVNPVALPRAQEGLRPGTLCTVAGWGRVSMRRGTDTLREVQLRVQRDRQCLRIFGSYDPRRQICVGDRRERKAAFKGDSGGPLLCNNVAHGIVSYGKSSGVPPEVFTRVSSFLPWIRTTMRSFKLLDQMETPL
Protocol: Cathepsin G Suc--Ala--Ala--Pro--Phe--pNA
as §1
(0.6 mM) (SEQ ID NO: 19)
as §2

[7] = tested on: Trypsin; experiment: Protease inhibitory activity assay, trypsin; type: biochemical; conditions: 1 μM inhibitor; trypsin 8 nM; H-D-Val-Leu-Lys-pNA 0.6 mM; 25° C.
Protocol: Trypsin (8 nM) H--D--Val--Leu--Lys--pNA
as §2

[8] = tested on: Chymotrypsin; experiment: Protease inhibitory activity assay, chymotrypsin; type: biochemical; conditions: 1 μM inhibitor; chymotrypsin 2.5 nM; MeO-Suc-Arg-Pro-Tyr-pNA 0.6 mM; 25° C.
Protocol: MeO--Suc--Arg--Pro--Tyr--pNA
as §2

[9] = target: T5, PL Kallikrein (plasma kallikrein) (Homo sapiens, UniProt P03952); experiment: Protease inhibitory activity assay, plasma kallikrein; type: biochemical; conditions: 1 μM inhibitor; PL kallikrein 3 nM; H-D-Pro-Phe-Arg-pNA 0.6 mM; 25° C.
T5 construct: purchased Kabi
T5 sequence (P03952 20-390 limits assumed): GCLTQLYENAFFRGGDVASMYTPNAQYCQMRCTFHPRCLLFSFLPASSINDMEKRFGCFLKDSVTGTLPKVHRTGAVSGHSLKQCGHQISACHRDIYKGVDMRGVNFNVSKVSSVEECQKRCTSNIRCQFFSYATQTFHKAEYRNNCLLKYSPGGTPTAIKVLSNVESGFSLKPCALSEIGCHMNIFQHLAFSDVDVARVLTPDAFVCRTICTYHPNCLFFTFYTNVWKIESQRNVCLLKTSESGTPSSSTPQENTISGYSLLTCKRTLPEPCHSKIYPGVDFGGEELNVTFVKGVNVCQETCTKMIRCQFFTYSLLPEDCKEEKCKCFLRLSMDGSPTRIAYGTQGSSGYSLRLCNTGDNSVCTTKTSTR
T5 sequence (P03952 391-638 limits assumed): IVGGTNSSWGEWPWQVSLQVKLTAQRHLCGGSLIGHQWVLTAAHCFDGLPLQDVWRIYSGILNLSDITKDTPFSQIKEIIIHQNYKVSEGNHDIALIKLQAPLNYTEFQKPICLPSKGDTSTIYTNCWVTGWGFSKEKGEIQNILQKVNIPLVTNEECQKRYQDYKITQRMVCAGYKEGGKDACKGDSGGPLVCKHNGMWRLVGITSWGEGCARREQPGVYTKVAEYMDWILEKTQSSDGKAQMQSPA
Protocol: (§5) H--D--Pro--Phe--Arg--pNA
as §3, §4, §2

[10] = target: T6, granulocyte elastase (Homo sapiens, UniProt P08246); conditions: cited from earlier work
T6 sequence (P08246 30-267): T1 sequence (P08246 30-267)

[11] = tested on: collagenase; conditions: Wenzel and Tschesche 1981; cited from earlier work
[12] = target: T7, rec. Protein Ca (activated protein C) (Homo sapiens, UniProt P04070); experiment: Protease inhibitory activity assay, activated protein C; type: biochemical; conditions: 1 μM inhibitor; rec. Protein Ca 5 nM; <Glu-Pro-Arg-pNA 0.6 mM; 25° C.
T7 construct: purchased Novo Nordisk A/S
T7 sequence (P04070 43-197 limits assumed): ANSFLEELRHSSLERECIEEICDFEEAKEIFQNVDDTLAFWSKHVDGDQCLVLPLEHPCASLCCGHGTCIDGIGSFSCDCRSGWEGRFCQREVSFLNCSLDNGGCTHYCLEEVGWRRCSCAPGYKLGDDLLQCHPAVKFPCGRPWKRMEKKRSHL
T7 sequence (P04070 212-461 limits assumed): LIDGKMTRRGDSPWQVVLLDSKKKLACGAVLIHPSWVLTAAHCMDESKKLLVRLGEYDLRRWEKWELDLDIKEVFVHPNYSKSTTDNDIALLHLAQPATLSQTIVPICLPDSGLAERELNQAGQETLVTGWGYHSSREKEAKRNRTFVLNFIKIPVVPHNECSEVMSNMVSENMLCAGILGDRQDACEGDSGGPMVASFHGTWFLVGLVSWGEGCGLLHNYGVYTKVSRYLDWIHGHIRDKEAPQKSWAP
Protocol: as §2
r.h. refers to recombinant human, h. refers to human, protein Ca refers t
activated protein C; APPH refers to the KunitzType inhibitor domain of […]

[13] = high doses; cardiac surgery including cardiopulmonary bypass operations; cited from earlier work
[14] = target: T8, human Factor XIIa (Homo sapiens, UniProt P00748); experiment: Protease inhibitory activity assay, Factor XIIa; type: biochemical; conditions: 1 μM inhibitor; Factor XIIa 30 nM; H-D-Pro-Phe-Arg-pNA 0.6 mM; 25° C.
T8 construct: human Factor XIIa (30 nM); purchased Dr. Walt Kisiel, University of New Mexico, Albuquerque, NM
T8 sequence (P00748 20-372 limits assumed): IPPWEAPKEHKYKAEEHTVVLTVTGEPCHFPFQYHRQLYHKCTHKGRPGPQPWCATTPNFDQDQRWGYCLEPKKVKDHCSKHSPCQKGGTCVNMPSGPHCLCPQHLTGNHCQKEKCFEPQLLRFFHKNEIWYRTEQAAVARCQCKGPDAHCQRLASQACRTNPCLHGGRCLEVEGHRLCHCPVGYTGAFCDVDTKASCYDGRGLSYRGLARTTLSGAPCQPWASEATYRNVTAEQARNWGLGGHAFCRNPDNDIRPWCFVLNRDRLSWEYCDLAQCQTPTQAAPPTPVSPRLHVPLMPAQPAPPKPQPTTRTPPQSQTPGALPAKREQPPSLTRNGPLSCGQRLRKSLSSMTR
T8 sequence (P00748 373-615 limits assumed): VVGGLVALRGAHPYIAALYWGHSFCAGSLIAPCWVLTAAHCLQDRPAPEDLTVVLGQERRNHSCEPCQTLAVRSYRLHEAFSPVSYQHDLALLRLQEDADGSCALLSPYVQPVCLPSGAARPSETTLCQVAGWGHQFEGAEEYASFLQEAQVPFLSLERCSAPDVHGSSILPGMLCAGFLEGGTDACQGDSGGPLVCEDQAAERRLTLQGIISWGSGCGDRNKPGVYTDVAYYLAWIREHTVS
Protocol: human Factor XIIa (30 nM)
as §5, §2

[15] = target: T9, human Factor XIa (Homo sapiens, UniProt P03951); experiment: Protease inhibitory activity assay, Factor XIa; type: biochemical; conditions: 1 μM inhibitor; Factor XIa 1 nM; Boc-Glu(OBzl)-Ala-Arg-MCA 0.12 mM; 25° C.
T9 construct: human Factor XIa (1 nM); purchased Dr. Kazuo Fujikawa, University of Washington, Seattle, WA
T9 sequence (P03951 19-387 limits assumed): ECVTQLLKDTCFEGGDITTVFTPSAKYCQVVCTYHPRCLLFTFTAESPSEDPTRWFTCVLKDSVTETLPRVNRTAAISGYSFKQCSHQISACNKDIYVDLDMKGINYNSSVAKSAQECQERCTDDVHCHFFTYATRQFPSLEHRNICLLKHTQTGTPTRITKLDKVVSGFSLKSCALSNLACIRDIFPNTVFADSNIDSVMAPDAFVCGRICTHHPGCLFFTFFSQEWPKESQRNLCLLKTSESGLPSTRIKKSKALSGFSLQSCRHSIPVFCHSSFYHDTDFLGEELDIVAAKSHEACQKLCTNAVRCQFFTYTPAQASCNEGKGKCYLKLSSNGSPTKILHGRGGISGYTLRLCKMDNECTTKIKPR
T9 sequence (P03951 388-625 limits assumed): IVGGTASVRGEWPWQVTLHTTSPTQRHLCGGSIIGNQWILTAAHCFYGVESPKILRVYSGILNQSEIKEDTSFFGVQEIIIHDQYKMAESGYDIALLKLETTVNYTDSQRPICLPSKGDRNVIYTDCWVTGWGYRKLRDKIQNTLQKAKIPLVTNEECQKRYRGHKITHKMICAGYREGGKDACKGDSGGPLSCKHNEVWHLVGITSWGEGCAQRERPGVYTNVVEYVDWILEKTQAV
Protocol: Boc--Glu(OBzl)--Ala--Arg--MCA
as §2

[16] = target: T10, rec. human Factor VIIa (Homo sapiens, UniProt P08709); experiment: Protease inhibitory activity assay, Factor VIIa; type: biochemical; conditions: 1 μM inhibitor; Factor VIIa 300 nM; H-D-Ile-Pro-Arg-pNA 0.6 mM; 25° C.
T10 construct: rec. human Factor VIIa; purchased Novo Nordisk A/S
T10 sequence (P08709 61-212 limits assumed): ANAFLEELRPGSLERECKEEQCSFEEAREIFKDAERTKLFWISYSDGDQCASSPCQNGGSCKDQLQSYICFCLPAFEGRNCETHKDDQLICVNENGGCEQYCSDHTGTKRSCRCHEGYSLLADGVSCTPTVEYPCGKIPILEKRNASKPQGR
T10 sequence (P08709 213-466 limits assumed): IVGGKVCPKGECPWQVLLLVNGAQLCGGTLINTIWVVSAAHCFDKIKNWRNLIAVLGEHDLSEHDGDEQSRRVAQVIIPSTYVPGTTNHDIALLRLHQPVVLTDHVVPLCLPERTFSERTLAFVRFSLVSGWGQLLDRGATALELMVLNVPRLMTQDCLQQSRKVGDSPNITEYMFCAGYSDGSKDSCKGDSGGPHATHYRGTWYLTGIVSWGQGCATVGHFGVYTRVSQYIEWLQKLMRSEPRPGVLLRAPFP
Protocol: H--D--Ile--Pro--Arg--pNA
as §2

[17] = tested on: kidneys; conditions: in vivo, repeated injections of relatively high doses; rats, rabbits and dogs; cited from earlier work
[18] = target: T11, human Factor Xa (Homo sapiens, UniProt P00742); experiment: Protease inhibitory activity assay, Factor Xa; type: biochemical; conditions: 1 μM inhibitor; Factor Xa 3 nM; MeO-CO-CHA-Gly-Arg-pNA 0.3 mM; 25° C.
T11 construct: human Factor Xa (3 nM); purchased Dr. I. Schousboe, Copenhagen, Denmark
T11 sequence (P00742 41-179 limits assumed): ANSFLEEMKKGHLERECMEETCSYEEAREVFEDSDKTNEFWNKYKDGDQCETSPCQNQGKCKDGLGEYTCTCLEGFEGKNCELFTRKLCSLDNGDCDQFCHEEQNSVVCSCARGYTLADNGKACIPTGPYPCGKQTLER
T11 sequence (P00742 235-488 limits assumed): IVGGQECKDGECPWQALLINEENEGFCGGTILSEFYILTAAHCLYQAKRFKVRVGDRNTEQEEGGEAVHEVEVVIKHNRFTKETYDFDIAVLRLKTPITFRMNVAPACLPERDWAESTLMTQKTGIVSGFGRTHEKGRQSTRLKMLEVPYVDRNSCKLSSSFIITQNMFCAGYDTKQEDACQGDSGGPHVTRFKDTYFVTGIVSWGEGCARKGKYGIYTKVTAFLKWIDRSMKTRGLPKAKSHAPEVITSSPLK
Protocol: The reactions were incubated at 25° C. for ten minutes after which the appropriate chromogenic substrate was added to the final concentration listed in Table 2 and the final reaction was incubated for thirty minutes at 25° C. Amidolytic activity was measured at 405 nm or by fluorescence Em at 460 nm.

Sequence of plasma kallikrein (P03952 20-638, species assumed): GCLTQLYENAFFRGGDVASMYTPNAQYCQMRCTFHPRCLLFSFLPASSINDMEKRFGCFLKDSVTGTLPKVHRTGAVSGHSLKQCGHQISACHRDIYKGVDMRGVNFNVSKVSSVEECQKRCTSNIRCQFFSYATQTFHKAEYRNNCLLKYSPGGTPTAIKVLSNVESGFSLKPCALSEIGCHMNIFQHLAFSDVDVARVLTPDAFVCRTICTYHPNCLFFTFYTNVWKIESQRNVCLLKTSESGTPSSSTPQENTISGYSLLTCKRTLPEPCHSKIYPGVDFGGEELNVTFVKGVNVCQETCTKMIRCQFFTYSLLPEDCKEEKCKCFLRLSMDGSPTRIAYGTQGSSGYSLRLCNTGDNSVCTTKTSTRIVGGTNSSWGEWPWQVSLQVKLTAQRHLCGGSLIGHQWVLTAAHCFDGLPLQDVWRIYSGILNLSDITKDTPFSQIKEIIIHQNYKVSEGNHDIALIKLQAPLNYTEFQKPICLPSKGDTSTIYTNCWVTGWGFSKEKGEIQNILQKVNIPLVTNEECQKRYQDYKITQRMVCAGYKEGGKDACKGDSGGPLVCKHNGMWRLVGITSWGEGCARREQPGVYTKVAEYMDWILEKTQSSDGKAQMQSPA

Substance: aprotinin (3-58, Arg15, Ala17, Ser42)
plasma kallikrein inhibitory effect [1]: excellent

% Inhibition, Leukocyte Elastase [2]: 6%
% Inhibition, Plasmin [3]: 90%
% Inhibition, Urokinase [5]: 0%
% Inhibition, Cathepsin G [6]: 16%
% Inhibition, PL Kallikrein [9]: 71%
Substance: APP: amyloid protein precursor Kunitz-type inhibitor domain (Example 2E, SEQ ID NO:17), expressed in yeast (EVCSEQAETGPCRAMISRWYFDVTEGKCAPFFYGGCGGNRNNFDTEEYCMAVCGSA)
% Inhibition, GI Kallikrein [4]: 82%
% Inhibition, Trypsin [7]: 99.7%
% Inhibition, Chymotrypsin [8]: 94%

Substance: Aprotinin (1-58, Ala15)
effect on elastase ([10]; literature): weak effect

Substance: aprotinin (1-58, Val15)
inhibitory effect on collagenase [11]: inhibitory effect
selectivity for granulocyte elastase ([10]; Wenzel and Tschesche 1981): relatively high selectivity

Substance: aprotinin [BPTI]
% Inhibition, Leukocyte Elastase [2]: 1%
% Inhibition, r.h. Protein Ca [12]: 38%
blood loss in connection with cardiac surgery [13]: significantly reduces blood loss
% Inhibition, Plasmin [3]: 100%
% Inhibition, h. Factor XIIa [14]: 2%
% Inhibition, h. Factor XIa [15]: 59%
% Inhibition, r.h. Factor VIIa [16]: 1%
% Inhibition, Urokinase [5]: 1%
% Inhibition, Cathepsin G [6]: 4%
% Inhibition, Trypsin [7]: 100%
% Inhibition, PL Kallikrein [9]: 83%
nephrotoxic effect [17]: nephrotoxic effect
% Inhibition, h. Factor Xa [18]: 1%
